Test results as given in patent publication US6429286B1, “Immunoregulatory molecules for costimulatory signal transduction” (priority 1997, dated 2002).
No end group written: not given here.

T1: mouse CD80-Ig (Mus musculus, UniProt Q00609)
T1 construct: Ig (immunoglobulin fusion partner); made in house; host or cells: COS7 cells (pCDM8 plasmid), purified on Protein A Sepharose
T1 sequence (Q00609 38-246 limits assumed): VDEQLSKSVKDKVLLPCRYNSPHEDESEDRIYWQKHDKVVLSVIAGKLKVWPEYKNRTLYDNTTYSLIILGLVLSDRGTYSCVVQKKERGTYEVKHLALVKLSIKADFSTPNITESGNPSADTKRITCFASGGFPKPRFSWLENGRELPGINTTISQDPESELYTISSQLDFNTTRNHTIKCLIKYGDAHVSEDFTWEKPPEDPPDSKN

T2: human CD80-Ig (Homo sapiens, UniProt P33681)
T2 construct: a fused gene of human CD80 extracellular domain and human Ig Cγl domain; made in house; host or cells: COS7 cells (pCDM8 plasmid, DEAE-dextran), purified on Protein A Sepharose
T2 sequence (P33681 35-242 limits assumed): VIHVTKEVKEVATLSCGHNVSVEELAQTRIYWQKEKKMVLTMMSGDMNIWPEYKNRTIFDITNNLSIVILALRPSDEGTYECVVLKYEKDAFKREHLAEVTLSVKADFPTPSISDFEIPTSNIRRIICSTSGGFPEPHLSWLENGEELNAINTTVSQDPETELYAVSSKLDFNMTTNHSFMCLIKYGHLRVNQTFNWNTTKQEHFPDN


What was measured:
T cells (spleen cells) [1] = test: T cell growth stimulating activity in spleen cells of mice immunized with egg lysozyme; format: cell-based, BALB/c mice; conditions: egg lysozyme 3 μg/ml plus phage 1 μg/ml added separately, W. T. phage as negative control, FIG. 8
From the text: In Example 6, there were used a phage protein as a primary antigen stimulation and the phage protein with expressed F2 or F6 sequence as a secondary stimulation in vitro. That is, in Example 6, a phage protein was used as an antigen and a secondary stimulation was made in a condition where both said antigen and F2 or F6 sequence are on the same particle. In this Example, however, the activity to stimulate the growth of T cells of phages expressing F2 or F6 as described in Example 6 was investigated wherein an antigen irrelevant to the phage (egg lysozyme) was used as a primary antigen stimulation and the egg lysozyme plus the phage particles expressing F2 or F6 sequence were separately added as a secondary stimulation.
Egg lysozyme 10 μg (100 μl/Freund's incomplete adjuvant (FIA)) was subcutaneously injected to BALB/c mice. Four weeks after administration, spleen cells and the relevant lymph nodes were removed from each mouse in a usual manner. Each well of 96-well culture plate was added with the spleen cells at 1.5×10^5 cells/well and with egg lysozyme at 3 μg/ml. Phages expressing F2 or F6 sequence were added at 1 μg/ml either at the same time, 1 day after, or 2 days after, the addition of egg lysozyme. As a negative control, W. T. phage was added. Measurement after culture was as described in Example 6.

[2] = system: anti-mouse CTLA-4 monoclonal antibody; test: ELISA: reactivity of plate-coated phage clones with the anti-mouse CTLA-4 monoclonal antibody; format: binding, hamster; conditions: phage 4x10^9 virions/well, antibody 200 ng/ml, FIG. 2 and 3
Procedure: The obtained 58 phage clones were subjected to primary screening with ELISA. A 96 well ELISA plate (Sumitomo Bakelite, Tokyo) was coated with each phage (4×10^9 virions/well/40 μl) purified as described by Smith et al. (G. P. Smith, Method in Enzymology, Vol. 217, p.228-257 (1993), Academic Press) at 4° C. overnight. The plate was washed with TBST and was blocked with 100 μl/well of 50 mM Tris-HCl, pH 7.5, 150 mM NaCl supplemented with 0.02% NaN3 and 1% BSA at room temperature for 2 hours. After washing with TBST, the plate was added with the anti-mouse CTLA-4 monoclonal antibody (200 ng/ml/well/100 μl) and reacted at room temperature for 1 hour. After washing with TBST; the plate was reacted with anti-hamster IgG antibody (Zymet, California) labeled with alkaline phosphatase diluted to 250-fold with TBS at room temperature for 1 hour. After washing, the plate was added with the substrate sodium p-nitrophenylphosphate hexahydrate (Wako Junyaku, Osaka) was added and absorbance at 405 nm was measured.
Whether each of the motifs as shown in Example 4 specifically binds to the anti-mouse CTLA-4 monoclonal antibody was investigated. A degree of specificity was determined by ELISA as described in Example 3. As a negative control, anti-mouse CD28 antibody (Phamingen, San Diego), having the same isotype with the anti-mouse CTLA-4 monoclonal antibody, and hamster IgG were used. Anti-hamster IgG antibody was used as a detection antibody. […] E. coli producing the phage expressing F2 sequence and the phage expressing F6 sequence have been deposited by the applicant in accordance with the Budapest Treaty as Escherichia coli F2 [FERM BP-6009] and as Escherichia coli F6 [FERM BP-60103], respectively, at National Institute of Bioscience and Human-Technology Agency of Industrial Science and Technology, 1-3, Higashi 1-chome, Tsukuba-shi, Ibaraki-ken, 305, Japan, on Apr. 14, 1997 (original deposition date: transferred from FERM P-16192 and FERM P-16193, respectively, to the deposition under the Budapest Treaty on Jul. 4, 1997).

T cells (spleen cells) [3] = test: Effect of CD80-Ig or CD86-Ig on the T cell growth stimulating activity of the phages; format: cell-based, BALB/c mice; conditions: phage 1 μg/ml, egg lysozyme 3 μg/ml; for effect of CD80-Ig on T cell growth stimulating activity: CD80-Ig 0-1 μg/ml, FIG. 9 and 10
Procedure: Each phage expressing F2 or F6 sequence reacted with anti-mouse CTLA-4 monoclonal antibody as shown in Example 5. Phage expressing F2 specifically bound to mouse CD80-Ig as shown in Example 7.
Egg lysozyme 50 μg (100 μl/PBS) was intraperitoneally administered to BALB/c mice. Four weeks after administration, spleen cells were removed from each mouse in a usual manner. In this Example, to each well of a 96-well culture plate were added the spleen cells at 1.5×10^5 cells/well and egg lysozyme at 3 μg/ml together with phage expressing F2 or F6 (1 μg/ml) and CD80-Ig or CD86-Ig or human Ig as a negative control at 0-1 μg/ml. The T cell growth stimulating activity was determined as described in Example 6.

[4] = system: anti-HBsAg antibody production; test: Anti-HBsAg antibody production in mice immunized with yHBsAg together with phages; format: in vivo, BALB/c mice; conditions: i.p. yHBsAg 10 μg with phage, boost at 15 days, blood three weeks after immunization, FIG. 11
Procedure: BALB/c mice (four animals per group) were administered intraperitoneally with either 10 μg (100 μl/PBS) of recombinant HBsAg produced in yeast (yHBsAg; Juridical Foundation The Chemo-Sero-Therapeutic Research Institute) alone or in combination with phages expressing F2 or F6 (10: pg/100 μl). Fifteen days after primary immunization, th-e same samples were administered intraperitoneally., Three weeks after primary immunization, each mouse was bled. Serum was diluted with PBS-to 50-fold, 200-fold and 800-fold and then anti-HBsAg antibody titer was measured with Ausab EIA kit (Abbott Laboratories).
The antibody titer was measured using a positive control attached to the kit as a standard.

mouse CD80-Ig = target: T1, mouse CD80-Ig; test: ELISA: binding of plate-coated phages to mouse CD80-Ig; conditions: for binding to mouse CD80-Ig: ELISA, 200 to 1000 ng/35 μl mouse CD80-Ig, FIG. 5
Procedure: (§1) The binding activity was measured by ELISA. A 96-well ELISA plate (Sumitomo Bakelite, Tokyo) was coated with phages expressing F2 or F6 sequence (4×10^9 virions/well/40 pi) at 4° C. overnight and then blocked with 50 mM Tris-HCl, pH 7.5, 150 mM NaCl (TBS) supplemented with 1% BSA at room temperature for 2 hours. After washing the plate with TBST, the plate was added with 200 to 1000 ng/35 μl of mouse CD80-Ig diluted with PBS and reacted at room temperature for 1 hour. After washing with TBST, the plate was reacted with alkali phosphatase-labeled anti-human IgG antibody (Zymet, California) diluted with TBS by 100-fold at room temperature for 1 hour. After washing, to the plate was added the substrate sodium p-nitrophenylphosphate hexahydrate and absorbance at 405 nm was measured.

human CD80-Ig = target: T2, human CD80-Ig; test: ELISA: binding of phage expressing F2 sequence to human CD80-Ig; conditions: mouse CTLA-4-Ig and human IgG as negative control, FIG. 7
Procedure: as §1
Then, whether phage expressing F2 sequence specifically binds to human CD80-Ig was investigated in this Example as described in Example 7, FIG. 5.
Human CD80-Ig was prepared by constructing a fused gene of human CD80 extracellular domain and human Ig Cγl domain as described by Linsley et al. (J. Exp. Med. Vol. 173, p.721-730 (1991)). An expression plasmid pCDM8 incorporating the fused gene fragment was introduced into COS7 cells by DEAE-dextran method. After culturing for 72 hours, human CD80-Ig was purified from culture supernatant with Protein A Sepharose (Pharmacia). […]

T cells (spleen cells) [5] = test: T cell growth, [3H]-thymidine take-up by spleen cells of mice primed with W. T. phage; format: cell-based, BALB/c mice; conditions: phage 0.015 to 5 μg/ml, three days culture, FIG. 4
Procedure: BALB/c mice (6 weeks old; four animals per group) were used in an experiment and the phages were purified as described by Smith et al. (G. P. Smith, Method in Enzymology, Vol. 217, p.228-257 (1993), Academic Press). An amount of the phages was measured using protein assay kit (BioRad) with bovine serum albumin as a standard and expressed as a protein concentration.
First, for antigen, stimulation, BALB/c mice were administered intraperitoneally with 10 μg (200 μl/PBS) of phage (W. T.) not expressing pIII protein. Four weeks after the administration, spleen cells were removed from each mouse in the usual manner. The spleen cells were added to each well of 96-well culture plate at 1.5×10^5 cells/well. To each well was added purified W. T. or phages expressing any of F1 to F6 sequence at a final concentration of 0.015 to 5 μg/ml to make a total volume of 200 μl (RPMS 1640 medium containing 10% FCS) Triplicates were used for each sample. After incubating these samples on ice for 30 minutes, the cells were cultured under condition of 5% CO2 at 37° C. for three days. Eighteen hours before completion of culture, the cells were pulse-labeled with [^3H]-thymidine (0.5 μCi/well). The cells were harvested with a cell harvester and a take-up of [^3H]-thymidine was measured with a liquid scintillation counter.

mouse CTLA-4-Ig = target: T3, mouse CTLA-4-Ig (mouse, UniProt P09793 36-161); test: ELISA, F2 phage coated, reacted with mouse CD80-Ig, mouse CTLA-4-Ig and human IgG
T3 construct: also called CTLA-4-Ig chimeric molecule; not shown: Ig part of the chimera; not described for this construct

| Molecule | T cell growth stimulating activity, egg lysozyme as antigen (T cells (spleen cells) [1]) | reactivity with anti-mouse CTLA-4 monoclonal antibody [2] | effect of CD80-Ig on T cell growth stimulating activity (T cells (spleen cells) [3]) | anti-HBsAg antibody titer relative to group immunized with HBsAg alone (= 1) [4] | binding to mouse CD80-Ig (mouse CD80-Ig) | growth of T cells as compared to W. T. phage (T cells (spleen cells) [5]) | further results |
| --- | --- | --- | --- | --- | --- | --- | --- |
| APGVRLGCAVLGRYC (cysteine pairing not given here) [F6] | exhibited the antigen-specific activity to stimulate the growth of T cells | reacted most strongly | did not inhibit | 11.9 | do not bind to CD80/CD86 molecules | – | effect of CD86-Ig on T cell growth stimulating activity (T cells (spleen cells) [3]; CD86-Ig 0-1 μg/ml, FIG. 10): did not inhibit |
| GFVCSGIFAVGVGRC (cysteine pairing not given here) [F2] | exhibited the antigen-specific activity to stimulate the growth of T cells | reacted most strongly | greatly inhibited | 17.9 | bound to mouse CD80-Ig in a concentration-dependent manner | – | binding to human CD80-Ig (human CD80-Ig): specifically bound to human CD80-Ig; binding specificity to mouse CD80-Ig (mouse CD80-Ig; ELISA against mouse CD80-Ig, mouse CTLA-4-Ig and human IgG, FIG. 6): specifically reacted with mouse CD80-Ig |
| GLHSRCHIGRDCSSA (cysteine pairing not given here) [F1] | – | reacted weakly | – | – | – | approximately equivalent to that with W. T. phage | – |
| HYGDCRYDLGSCRGA (cysteine pairing not given here) [F4] | – | reacted weakly | – | – | – | approximately equivalent to that with W. T. phage | – |
| SCVFHHSGRYWGRCV (cysteine pairing not given here) [F3] | – | reacted more weakly | – | – | – | approximately equivalent to that with W. T. phage | – |
| phage expressing F2 sequence (also called F2 phage) ADGAGFVCSGIFAVGVGRCGAAGAETVESCLAKPHTENSFTNVWKDDKTLDRYANYEGCLWNATGVVVCTGDETQCYGTWVPIGLAIPENEGGGSEGGGSEGGGSEGGGTKPPEYGDTPIPGYTYINPLDGTYPPGTEQNPANPNPSLEESQPLNTFMFQNNRFRNRQGALTVYTGTVTQGTDPVKTYYQYTPVSSKAMYDAYWNGKFRDCAFHSGFNEDPFVCEYQGQSSDLPQPPVNAGGGSGGGSGGGSEGGGSEGGGSEGGGSEGGGSGGGSGSGDFDYEKMANANKGAMTENADENALQSDAKGKLDSVATDYGAAIDGFIGDVSGLANGNGATGDFAGSNSQMAQVGDGDNSPLMNNFRQYLPSLPQSVECRPYVFGAGKPYEFSIDCDKINLFRGVFAFLLYVATFMYVFSTFANILRNKES | – | – | – | – | – | – | binding result (mouse CTLA-4-Ig): no binding |
